Source: PubChem BioAssay (NCI)
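How tested: cells in 96-well plates exposed to compound for 48 hours at five concentrations. Here, GI50 denotes the concentration required for 50% inhibition of growth. The concentration for full growth arrest is given as TGI.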

Assays:
Experiment in all cases: growth of human tumour cells (NCI), 48 h
RPMI-8226 leukemia = system: RPMI-8226 leukemia
HOP-62 NSCLC = system: HOP-62 NSCLC
NCI-H522 lung = system: NCI-H522 lung
UACC-257 melanoma = system: UACC-257 melanoma
IGROV1 ovarian = system: IGROV1 ovarian
T-47D breast = system: T-47D breast
HCT-116 colon = system: HCT-116 colon
SF-295 CNS = system: SF-295 CNS
HOP-92 NSCLC = system: HOP-92 NSCLC
MDA-N = system: MDA-N
OVCAR-4 ovarian = system: OVCAR-4 ovarian
NCI-H226 lung = system: NCI-H226 lung
TK-10 renal = system: TK-10 renal
HS 578T breast = system: HS 578T breast
OVCAR-8 ovarian = system: OVCAR-8 ovarian
MDA-MB-231 breast = system: MDA-MB-231 breast
PC-3 prostate = system: PC-3 prostate
U251 CNS = system: U251 CNS
SK-MEL-2 melanoma = system: SK-MEL-2 melanoma
SNB-75 CNS = system: SNB-75 CNS
CCRF-CEM leukemia = system: CCRF-CEM leukemia
HCT-15 colon = system: HCT-15 colon
SW-620 colon = system: SW-620 colon
SK-MEL-28 melanoma = system: SK-MEL-28 melanoma
786-0 renal = system: 786-0 renal
SK-MEL-5 melanoma = system: SK-MEL-5 melanoma
SF-268 CNS = system: SF-268 CNS
K-562 leukemia = system: K-562 leukemia
NCI/ADR-RES ovarian = system: NCI/ADR-RES ovarian
MOLT-4 leukemia = system: MOLT-4 leukemia
HT29 colon = system: HT29 colon
ACHN renal = system: ACHN renal
LOX IMVI melanoma = system: LOX IMVI melanoma
NCI-H23 lung = system: NCI-H23 lung
SK-OV-3 ovarian = system: SK-OV-3 ovarian
HL-60(TB) leukemia = system: HL-60(TB) leukemia
DU-145 prostate = system: DU-145 prostate
MCF7 breast = system: MCF7 breast
A498 renal = system: A498 renal
M14 melanoma = system: M14 melanoma
NCI-H460 lung = system: NCI-H460 lung
RXF 393 renal = system: RXF 393 renal
SR leukemia = system: SR leukemia
KM12 colon = system: KM12 colon
OVCAR-5 ovarian = system: OVCAR-5 ovarian
CAKI-1 renal = system: CAKI-1 renal
MDA-MB-435 = system: MDA-MB-435
OVCAR-3 ovarian = system: OVCAR-3 ovarian
SF-539 CNS = system: SF-539 CNS
EKVX NSCLC = system: EKVX NSCLC
HCC-2998 colon = system: HCC-2998 colon
UO-31 renal = system: UO-31 renal
BT-549 breast = system: BT-549 breast
A549 NSCLC = system: A549 NSCLC
SN12C renal = system: SN12C renal
SNB-19 CNS = system: SNB-19 CNS
MALME-3M melanoma = system: MALME-3M melanoma
COLO 205 colon = system: COLO 205 colon
UACC-62 melanoma = system: UACC-62 melanoma

## CC1=NN(c2cccc(Cl)c2)C(=N/c2nc3ccccc3s2)/C1=C\c1ccccc1O
RPMI-8226 leukemia
  TGI: > 100 µM
HOP-62 NSCLC
  TGI: > 100 µM
NCI-H522 lung
  TGI: 49.4 µM
UACC-257 melanoma
  TGI: 62.2 µM
IGROV1 ovarian
  TGI: > 100 µM
T-47D breast
  TGI: > 100 µM
HCT-116 colon
  TGI: 68 µM
SF-295 CNS
  TGI: 86.2 µM
HOP-92 NSCLC
  TGI: 83.5 µM
MDA-N
  TGI: 93.5 µM
OVCAR-4 ovarian
  TGI: > 100 µM
NCI-H226 lung
  TGI: 87.8 µM
TK-10 renal
  TGI: > 100 µM
HS 578T breast
  TGI: 56.5 µM
OVCAR-8 ovarian
  TGI: > 100 µM
MDA-MB-231 breast
  TGI: 64.4 µM
PC-3 prostate
  TGI: 48.7 µM
U251 CNS
  TGI: 61 µM
SK-MEL-2 melanoma
  TGI: 40.3 µM
SNB-75 CNS
  TGI: > 100 µM
CCRF-CEM leukemia
  TGI: > 100 µM
HCT-15 colon
  TGI: 81.1 µM
SW-620 colon
  TGI: > 100 µM
SK-MEL-28 melanoma
  TGI: 76.3 µM
786-0 renal
  TGI: > 100 µM
SK-MEL-5 melanoma
  TGI: 46.2 µM
SF-268 CNS
  TGI: 78.8 µM
K-562 leukemia
  TGI: > 100 µM
NCI/ADR-RES ovarian
  TGI: 63.7 µM
MOLT-4 leukemia
  TGI: 87.4 µM
HT29 colon
  TGI: 97.8 µM
ACHN renal
  TGI: 74.3 µM
LOX IMVI melanoma
  TGI: 57.6 µM
NCI-H23 lung
  TGI: 70.1 µM
SK-OV-3 ovarian
  TGI: 81.1 µM
HL-60(TB) leukemia
  TGI: 80.6 µM
DU-145 prostate
  TGI: > 100 µM
MCF7 breast
  TGI: > 100 µM
A498 renal
  TGI: 52.4 µM
M14 melanoma
  TGI: > 100 µM
NCI-H460 lung
  TGI: 84.4 µM
RXF 393 renal
  TGI: > 100 µM
SR leukemia
  TGI: 77.3 µM
KM12 colon
  TGI: > 100 µM
OVCAR-5 ovarian
  TGI: > 100 µM
CAKI-1 renal
  TGI: > 100 µM
MDA-MB-435
  TGI: > 100 µM
OVCAR-3 ovarian
  TGI: 60.4 µM
SF-539 CNS
  TGI: > 100 µM
EKVX NSCLC
  TGI: > 100 µM
HCC-2998 colon
  TGI: 45.4 µM
UO-31 renal
  TGI: > 100 µM

## Nc1c(O)c2c(c(O)c1Cl)C(=O)C=CC2=O
RPMI-8226 leukemia
  TGI: 44.8 µM
BT-549 breast
  TGI: 3.38 µM
HOP-62 NSCLC
  TGI: 15.9 µM
NCI-H522 lung
  TGI: 28 µM
UACC-257 melanoma
  TGI: 3.3 µM
IGROV1 ovarian
  TGI: 14 µM
T-47D breast
  TGI: 21.5 µM
HCT-116 colon
  TGI: 7.09 µM
SF-295 CNS
  TGI: 6.94 µM
HOP-92 NSCLC
  TGI: 31.3 µM
MDA-N
  TGI: 3.24 µM
OVCAR-4 ovarian
  TGI: 16.2 µM
NCI-H226 lung
  TGI: 34.3 µM
TK-10 renal
  TGI: 37 µM
A549 NSCLC
  TGI: 5.68 µM
HS 578T breast
  TGI: 37.1 µM
OVCAR-8 ovarian
  TGI: 14 µM
MDA-MB-231 breast
  TGI: 19.7 µM
PC-3 prostate
  TGI: 14.8 µM
SN12C renal
  TGI: 13.7 µM
U251 CNS
  TGI: 15.8 µM
SK-MEL-2 melanoma
  TGI: 23.8 µM
SNB-75 CNS
  TGI: 12.6 µM
CCRF-CEM leukemia
  TGI: > 100 µM
HCT-15 colon
  TGI: > 36.8 µM
SW-620 colon
  TGI: 9.93 µM
SK-MEL-28 melanoma
  TGI: 8.68 µM
786-0 renal
  TGI: 25.5 µM
SK-MEL-5 melanoma
  TGI: 2.04 µM
SF-268 CNS
  TGI: 26.3 µM
K-562 leukemia
  TGI: > 60.6 µM
NCI/ADR-RES ovarian
  TGI: > 32.6 µM
MOLT-4 leukemia
  TGI: > 87.6 µM
HT29 colon
  TGI: 8.21 µM
ACHN renal
  TGI: 18.8 µM
LOX IMVI melanoma
  TGI: 16.4 µM
NCI-H23 lung
  TGI: 4.89 µM
SK-OV-3 ovarian
  TGI: > 60.7 µM
SNB-19 CNS
  TGI: 14.2 µM
HL-60(TB) leukemia
  TGI: 6.13 µM
DU-145 prostate
  TGI: 5.3 µM
MCF7 breast
  TGI: 3.51 µM
A498 renal
  TGI: 27.3 µM
M14 melanoma
  TGI: 6.08 µM
MALME-3M melanoma
  TGI: 0.894 µM
NCI-H460 lung
  TGI: 4.64 µM
RXF 393 renal
  TGI: 21 µM
KM12 colon
  TGI: 13.3 µM
COLO 205 colon
  TGI: 3.32 µM
OVCAR-5 ovarian
  TGI: 11.4 µM
CAKI-1 renal
  TGI: 32.2 µM
MDA-MB-435
  TGI: 3.16 µM
OVCAR-3 ovarian
  TGI: 6.02 µM
SF-539 CNS
  TGI: 7.76 µM
EKVX NSCLC
  TGI: 24.4 µM
HCC-2998 colon
  TGI: 11.9 µM
UO-31 renal
  TGI: 24.5 µM
UACC-62 melanoma
  TGI: 3.05 µM

## C=C[C@@]1(C)CC(=O)[C@]2(O)[C@@]3(C)[C@@H](OC(C)=O)CCC(C)(C)[C@@H]3[C@H](O)[C@H](OC(C)=O)[C@@]2(C)O1
BT-549 breast
  TGI: > 100 µM
HOP-62 NSCLC
  TGI: > 100 µM
UACC-257 melanoma
  TGI: > 100 µM
IGROV1 ovarian
  TGI: > 100 µM
T-47D breast
  TGI: > 100 µM
HCT-116 colon
  TGI: > 100 µM
SF-295 CNS
  TGI: > 100 µM
HOP-92 NSCLC
  TGI: > 100 µM
MDA-N
  TGI: > 100 µM
OVCAR-4 ovarian
  TGI: > 100 µM
NCI-H226 lung
  TGI: > 100 µM
A549 NSCLC
  TGI: > 100 µM
OVCAR-8 ovarian
  TGI: > 100 µM
MDA-MB-231 breast
  TGI: > 100 µM
PC-3 prostate
  TGI: > 100 µM
SN12C renal
  TGI: > 100 µM
U251 CNS
  TGI: > 100 µM
SK-MEL-2 melanoma
  TGI: > 100 µM
SNB-75 CNS
  TGI: 87.7 µM
HCT-15 colon
  TGI: > 100 µM
SW-620 colon
  TGI: > 100 µM
SK-MEL-28 melanoma
  TGI: > 100 µM
786-0 renal
  TGI: > 100 µM
K-562 leukemia
  TGI: > 100 µM
NCI/ADR-RES ovarian
  TGI: > 100 µM
MOLT-4 leukemia
  TGI: > 100 µM
HT29 colon
  TGI: > 100 µM
ACHN renal
  TGI: > 100 µM
LOX IMVI melanoma
  TGI: > 100 µM
NCI-H23 lung
  TGI: > 100 µM
SK-OV-3 ovarian
  TGI: > 100 µM
SNB-19 CNS
  TGI: > 100 µM
DU-145 prostate
  TGI: > 100 µM
MCF7 breast
  TGI: > 100 µM
A498 renal
  TGI: > 100 µM
M14 melanoma
  TGI: > 100 µM
NCI-H460 lung
  TGI: > 100 µM
SR leukemia
  TGI: > 100 µM
KM12 colon
  TGI: > 100 µM
OVCAR-5 ovarian
  TGI: > 100 µM
CAKI-1 renal
  TGI: > 100 µM
MDA-MB-435
  TGI: > 100 µM
OVCAR-3 ovarian
  TGI: > 100 µM
SF-539 CNS
  TGI: > 100 µM
EKVX NSCLC
  TGI: > 100 µM
HCC-2998 colon
  TGI: > 100 µM
UO-31 renal
  TGI: > 100 µM
UACC-62 melanoma
  TGI: > 100 µM

## CC(C)SC1SCC2C(=O)N(C)C3(CC3C)C(=O)OCC(NC(=O)c3nc4ccccc4cc3O)C(=O)NC(C)C(=O)N(C)C1C(=O)N(C)C1(CC1C)C(=O)OCC(NC(=O)c1nc3ccccc3cc1O)C(=O)NC(C)C(=O)N2C (configuration not stated)
RPMI-8226 leukemia
  TGI: < 0.0001 µM
NCI-H522 lung
  TGI: < 0.0001 µM
UACC-257 melanoma
  TGI: < 0.0001 µM
T-47D breast
  TGI: > 100 µM
HCT-116 colon
  TGI: > 100 µM
SF-295 CNS
  TGI: 0.00809 µM
HOP-92 NSCLC
  TGI: < 0.0001 µM
MDA-N
  TGI: < 0.0001 µM
OVCAR-4 ovarian
  TGI: < 0.0001 µM
NCI-H226 lung
  TGI: < 0.0001 µM
TK-10 renal
  TGI: < 0.0001 µM
A549 NSCLC
  TGI: 17 µM
MDA-MB-231 breast
  TGI: > 100 µM
PC-3 prostate
  TGI: < 0.0001 µM
U251 CNS
  TGI: < 0.0001 µM
CCRF-CEM leukemia
  TGI: < 0.0001 µM
SK-MEL-28 melanoma
  TGI: < 0.0001 µM
786-0 renal
  TGI: < 0.0001 µM
SK-MEL-5 melanoma
  TGI: < 0.0001 µM
SF-268 CNS
  TGI: 0.00129 µM
K-562 leukemia
  TGI: < 0.0001 µM
NCI/ADR-RES ovarian
  GI50: 0.0334 µM
MOLT-4 leukemia
  TGI: < 0.0001 µM
HT29 colon
  TGI: 2.88 µM
ACHN renal
  TGI: > 100 µM
LOX IMVI melanoma
  TGI: < 0.0001 µM
NCI-H23 lung
  TGI: < 0.0001 µM
SK-OV-3 ovarian
  TGI: 4.92 µM
HL-60(TB) leukemia
  TGI: < 0.0001 µM
DU-145 prostate
  TGI: > 100 µM
A498 renal
  TGI: < 0.0001 µM
M14 melanoma
  TGI: < 0.0001 µM
RXF 393 renal
  TGI: < 0.0001 µM
SR leukemia
  TGI: < 0.0001 µM
KM12 colon
  TGI: < 0.0001 µM
COLO 205 colon
  TGI: < 0.0001 µM
CAKI-1 renal
  TGI: 0.00028 µM
MDA-MB-435
  TGI: < 0.0001 µM
OVCAR-3 ovarian
  TGI: < 0.0001 µM
SF-539 CNS
  TGI: < 0.0001 µM
EKVX NSCLC
  TGI: 0.0759 µM
HCC-2998 colon
  TGI: < 0.0001 µM
UO-31 renal
  TGI: < 0.0001 µM
UACC-62 melanoma
  TGI: < 0.0001 µM
